Laboratory results taken from doi:10.1101/2025.07.30.663779v2 (biorxiv, 2025).

Key:
αCD40-mSAs = experiment: fluorescence polarization titration; format: binding; details: PBS; 20 nM biotin-FITC (Millipore-Sigma cat. 53608); labelled compound
recombinant streptavidin = recombinant streptavidin (Streptomyces avidinii, UniProt P22629); experiment: fluorescence polarization titration; format: binding; details: PBS; 20 nM biotin-FITC (Millipore-Sigma cat. 53608); labelled compound

Kd (αCD40-mSAs): 0.0692 µM | Kd (recombinant streptavidin): 0.0206 µM
Substance: biotin-FITC
